Results taken from patent US6756382B2, “Amide substituted imidazoquinolines” (3M Innovative Properties Company, priority 1999, dated 2004).
Structures can show the parent of a compound that is named as a salt.

Legend:
interferon (α) = experiment: Cytokine induction in human cells: interferon secreted by PBMCs, ELISA; assay type: cell-based; conditions: PBMC, incubated 18 to 24 hours, interferon determined by ELISA, read-out: Lowest Effective Concentration (μM) Interferon
From the text: (§1) An in vitro human blood cell system was used to assess cytokine induction by compounds of the invention. Activity is based on the measurement of interferon and tumor necrosis factor (α) (IFN and TNF, respectively) secreted into culture media as described by Testerman et. al. In “Cytokine Induction by the Immunomodulators Imiquimod and S-27609”, Journal of Leukocyte Biology, 58, 365-372 (September, 1995).
(§2) Whole blood is collected by venipuncture into EDTA vacutainer tubes from healthy human donors. Peripheral blood mononuclear cells (PBMCs) are separated from whole blood by density gradient centrifugation using Histopaque®-1077 (Sigma Chemicals, St. Louis, Mo.). The PBMCs are suspended at 3-4×10^6 cells/mL in RPMI 1640 medium containing 10% fetal bovine serum, 2 mM L-glutamine and 1% penicillin/streptomycin solution (RPMI complete). The PBMC suspension is added to 48 well flat bottom sterile tissue culture plates (Costar, Cambridge, Mass. or Becton Dickinson Labware, Lincoln Park, N.J.) containing an equal volume of RPMI complete media containing test compound.
(§3) The compounds are solubilized in dimethyl sulfoxide (DMSO). The DMSO concentration should not exceed a final concentration of 1% for addition to the culture wells.
(§4) The solution of test compound is added at 60 μM to the first well containing RPMI complete and serial (three fold or ten fold) dilutions are made. The PBMC suspension is then added to the wells in an equal volume, bringing the test compound concentrations to the desired range. The final concentration of PBMC suspension is 1.5-2×10^6 cells/mL. The plates are covered with sterile plastic lids, mixed gently and then incubated for 18 to 24 hours at 37° C. in a 5% carbon dioxide atmosphere.
(§5) Following incubation the plates are centrifuged for 5-10 minutes at 1000 rpm (˜200×g) at 4° C. The cell culture supernatant is removed with a sterile polypropylene pipet and transferred to sterile polypropylene tubes. Samples are maintained at −30 to −70° C. until analysis. The samples are analyzed for interferon (α) by either ELISA or bioassay and for tumor necrosis factor (α) by ELISA.
Interferon (α) concentration is determined by ELISA using a Human Multi-Species kit from PBL Biomedical Laboratories, New Brunswick, N.J.
(§6) The table below lists the lowest concentration found to induce interferon and the lowest concentration found to induce tumor necrosis factor for each compound. […] Unless otherwise indicated, the interferon biosynthesis was determined by ELISA.

[1] = system: tumor necrosis factor (α); experiment: Cytokine induction in human cells: tumor necrosis factor (α) secreted by PBMCs, ELISA; assay type: cell-based; conditions: PBMC, incubated 18 to 24 hours, TNF determined by ELISA, read-out: Lowest Effective Concentration (μM) Tumor Necrosis Factor
From the text: as §1, §2, §3, §4, §5
Tumor necrosis factor (α) (TNF)concentration is determined using ELISA kits available from Genzyme, Cambridge, Mass.; R&D Systems, Minneapolis, Minn.; or Pharmingen, San Diego, Calif.
as §6

Nc1nc2ccccc2c2c1ncn2CCCCCNC(=O)c1ccccc1 (as salt: hydrochloride) [Example 10, N^1-[5-(4-Amino-1H-imidazo[4,5-c]quinolin-1-yl)pentyl]benzamide Hydrochloride]
melting point: 217 to 219 °C

Nc1nc2ccccc2c2c1ncn2CCCNC(=O)c1ccccc1 (as salt: hydrochloride) [Example 11, N^1-[3-(4-Amino-1H-imidazo[4,5-c]quinolin-1-yl)propyl]benzamide Hydrochloride]
melting point: 265 to 270 °C

CCOCc1nc2c(N)nc3ccccc3c2n1CCNC(=O)CCCCC1SCC2NC(=O)NC21 (stereo not drawn) (as salt: trifluoroacetate) [Example 29, N^1-[2-(4-Amino-2-(ethoxymethyl)-1H-imidazo[4,5-c]quinolin-1-yl)ethyl]-5-(2-oxoperhydrothieno[3,4-d]imidazol-4-yl)pentanamide Ditrifluoroacetate]
melting point: 171 to 175 °C

Cl.Nc1nc2ccccc2c2c1ncn2CCCCNC(=O)c1ccccc1.O (hydrate or solvate)
melting point: 254 to 256 °C

CC(=O)N(CCCCn1cnc2c(N)nc3ccccc3c21)Cc1ccc(Br)cc1 [Example 121]
minimal effective concentration (interferon (α)): 1.11 µM
minimal effective concentration [1]: > 30 µM

CC(=O)N(CCCCn1cnc2c(N)nc3ccccc3c21)Cc1cc(Br)ccc1O [Example 122]
minimal effective concentration (interferon (α)): 3.33 µM
minimal effective concentration [1]: > 30 µM

CCCCOc1ccc(CN(CCCCn2cnc3c(N)nc4ccccc4c32)C(C)=O)cc1 [Example 123]
minimal effective concentration (interferon (α)): 3.33 µM
minimal effective concentration [1]: > 30 µM

CC(=O)N(CCCCn1cnc2c(N)nc3ccccc3c21)Cc1ccccc1Cl [Example 124]
minimal effective concentration (interferon (α)): 1.11 µM
minimal effective concentration [1]: 3.33 µM

CC(=O)N(CCCCn1cnc2c(N)nc3ccccc3c21)Cc1cc([N+](=O)[O-])ccc1Cl [Example 125]
minimal effective concentration (interferon (α)): 1.11 µM
minimal effective concentration [1]: > 30 µM

CC(=O)N(CCCCn1cnc2c(N)nc3ccccc3c21)Cc1cc(Cl)ccc1[N+](=O)[O-] [Example 126]
minimal effective concentration (interferon (α)): 3.33 µM
minimal effective concentration [1]: > 30 µM

CC(=O)N(CCCCn1cnc2c(N)nc3ccccc3c21)Cc1ccccc1Sc1ccc(Cl)cc1 [Example 127]
minimal effective concentration (interferon (α)): > 30 µM
minimal effective concentration [1]: > 30 µM

CC(=O)N(CCCCn1cnc2c(N)nc3ccccc3c21)Cc1cc(Cl)cc(Cl)c1 [Example 128]
minimal effective concentration (interferon (α)): 3.33 µM
minimal effective concentration [1]: 1.11 µM

CC(=O)N(CCCCn1cnc2c(N)nc3ccccc3c21)Cc1ccc(F)c(F)c1 [Example 129]
minimal effective concentration (interferon (α)): 3.33 µM
minimal effective concentration [1]: > 30 µM

COc1ccc(OC)c(CN(CCCCn2cnc3c(N)nc4ccccc4c32)C(C)=O)c1 [Example 130]
minimal effective concentration (interferon (α)): 1.11 µM
minimal effective concentration [1]: 10 µM

COc1cccc(CN(CCCCn2cnc3c(N)nc4ccccc4c32)C(C)=O)c1OC [Example 131]
minimal effective concentration (interferon (α)): 3.33 µM
minimal effective concentration [1]: > 30 µM

CC(=O)N(CCCCn1cnc2c(N)nc3ccccc3c21)Cc1ccc(C)cc1C [Example 132]
minimal effective concentration (interferon (α)): 1.11 µM
minimal effective concentration [1]: 3.33 µM

CCc1ccc(CN(CCCCn2cnc3c(N)nc4ccccc4c32)C(C)=O)o1 [Example 133]
minimal effective concentration (interferon (α)): 3.33 µM
minimal effective concentration [1]: > 30 µM

CC(=O)N(CCCCn1cnc2c(N)nc3ccccc3c21)Cc1ccco1 [Example 134]
minimal effective concentration (interferon (α)): 0.37 µM
minimal effective concentration [1]: > 30 µM

CC(=O)N(CCCCn1cnc2c(N)nc3ccccc3c21)Cc1ccoc1 [Example 135]
minimal effective concentration (interferon (α)): 0.12 µM
minimal effective concentration [1]: > 30 µM

CC(=O)N(CCCCn1cnc2c(N)nc3ccccc3c21)CCCc1ccccc1 [Example 136]
minimal effective concentration (interferon (α)): 1.11 µM
minimal effective concentration [1]: > 30 µM

CCCCCCCCN(CCCCn1cnc2c(N)nc3ccccc3c21)C(C)=O [Example 137]
minimal effective concentration (interferon (α)): 10 µM
minimal effective concentration [1]: > 30 µM

CC(=O)N(CCCCn1cnc2c(N)nc3ccccc3c21)Cc1cccc2ccccc12 [Example 138]
minimal effective concentration (interferon (α)): 1.11 µM
minimal effective concentration [1]: > 30 µM

COc1ccc2ccccc2c1CN(CCCCn1cnc2c(N)nc3ccccc3c21)C(C)=O [Example 139]
minimal effective concentration (interferon (α)): > 30 µM
minimal effective concentration [1]: > 30 µM

CC(=O)N(CCCCn1cnc2c(N)nc3ccccc3c21)Cc1ccc([N+](=O)[O-])cc1 [Example 140]
minimal effective concentration (interferon (α)): 1.11 µM
minimal effective concentration [1]: > 30 µM

CC(=O)N(CCCCn1cnc2c(N)nc3ccccc3c21)Cc1ccccc1[N+](=O)[O-] [Example 141]
minimal effective concentration (interferon (α)): 0.37 µM
minimal effective concentration [1]: > 30 µM

CC(=O)N(CCCCn1cnc2c(N)nc3ccccc3c21)Cc1ccncc1 [Example 143]
minimal effective concentration (interferon (α)): 0.12 µM
minimal effective concentration [1]: > 30 µM

CC(=O)N(CCCCn1cnc2c(N)nc3ccccc3c21)Cc1ccccc1C [Example 144]
minimal effective concentration (interferon (α)): 1.11 µM
minimal effective concentration [1]: > 30 µM

COc1ccc(CN(CCCCn2cnc3c(N)nc4ccccc4c32)C(C)=O)c(OC)c1OC [Example 145]
minimal effective concentration (interferon (α)): 1.11 µM
minimal effective concentration [1]: > 30 µM

COc1cc(CN(CCCCn2cnc3c(N)nc4ccccc4c32)C(C)=O)cc(OC)c1OC [Example 146]
minimal effective concentration (interferon (α)): 3.33 µM
minimal effective concentration [1]: > 30 µM

COCCc1nc2c(N)nc3ccccc3c2n1CCCCNC(=O)C=C(C)C [Example 148]
minimal effective concentration (interferon (α)): 0.01 µM
minimal effective concentration [1]: 1 µM

COCCc1nc2c(N)nc3ccccc3c2n1CCCCNC(=O)C1CCCC1 [Example 149]
minimal effective concentration (interferon (α)): 0.001 µM
minimal effective concentration [1]: 1 µM

COCCc1nc2c(N)nc3ccccc3c2n1CCCCNC(=O)C1CCCCC1 [Example 150]
minimal effective concentration (interferon (α)): 0.001 µM
minimal effective concentration [1]: 0.1 µM

COCCc1nc2c(N)nc3ccccc3c2n1CCCCNC(=O)c1ccccc1C [Example 151]
minimal effective concentration (interferon (α)): 0.0001 µM
minimal effective concentration [1]: > 10 µM

COCCc1nc2c(N)nc3ccccc3c2n1CCCCNC(=O)[C@@H]1C[C@H]1c1ccccc1 [Example 153]
minimal effective concentration (interferon (α)): 0.0001 µM
minimal effective concentration [1]: 0.1 µM

COCCc1nc2c(N)nc3ccccc3c2n1CCCCNC(=O)c1cccc2ccccc12 [Example 154]
minimal effective concentration (interferon (α)): 0.0001 µM
minimal effective concentration [1]: > 10 µM

COCCc1nc2c(N)nc3ccccc3c2n1CCCCNC(=O)c1ccc(C(C)(C)C)cc1 [Example 156]
minimal effective concentration (interferon (α)): 0.001 µM
minimal effective concentration [1]: 1 µM

COCCc1nc2c(N)nc3ccccc3c2n1CCCCNC(=O)c1ccc(OC)c(OC)c1 [Example 158]
minimal effective concentration (interferon (α)): 0.001 µM
minimal effective concentration [1]: 1 µM

COCCc1nc2c(N)nc3ccccc3c2n1CCCCNC(=O)CCCCCCC(=O)OC [Example 159]
minimal effective concentration (interferon (α)): 0.01 µM
minimal effective concentration [1]: 1 µM

COCCc1nc2c(N)nc3c(c2n1CCCCNC(=O)c1ccccc1)CCCC3 [Example 172]
minimal effective concentration (interferon (α)): 0.0001 µM
minimal effective concentration [1]: 1 µM

COCCc1nc2c(N)nc3c(c2n1CCCCNC(=O)c1ccncc1)CCCC3 [Example 173]
minimal effective concentration (interferon (α)): 0.001 µM
minimal effective concentration [1]: 1 µM

COCCc1nc2c(N)nc3c(c2n1CCCCNC(=O)Cc1ccccc1)CCCC3 [Example 174]
minimal effective concentration (interferon (α)): 0.001 µM
minimal effective concentration [1]: 1 µM

COCCc1nc2c(N)nc3ccccc3c2n1CCCCNC(=O)[C@H]1CC(=O)N(C)[C@@H]1c1cccnc1 [Example 184, (2S,3S)-N-{4-[4-amino-2-(2-methoxyethyl)-1H-imidazo[4,5-c]quinolin-1-yl]butyl}-1-methyl-5-oxo-2-pyridin-3-ylpyrrolidine-3-carboxamide]
minimal effective concentration (interferon (α)): 0.12 µM
minimal effective concentration [1]: 1.11 µM

CCCCc1nc2c(N)nc3ccccc3c2n1CCCNC(=O)c1cc2ccccc2cn1 [Example 188, N-[3-(4-amino-2-butyl-1H-imidazo[4,5-c]quinolin-1-yl)propyl]isoquinoline-3-carboxamide]
minimal effective concentration (interferon (α)): 0.37 µM
minimal effective concentration [1]: 1.11 µM

Nc1nc2ccccc2c2c1ncn2CCCCCCCCNC(=O)c1ccccc1 [Example 191, N-[8-(4-amino-1H-imidazo[4,5-c]quinolin-1-yl)octyl]benzamide]
minimal effective concentration (interferon (α)): > 30 µM
minimal effective concentration [1]: > 30 µM
